Columns and labels:
[1] = tested on: lambsquarter (Chenopodium album); experiment: Postemergence herbicidal activity; assay type: in vivo; details: post-emergent, after 14 days; for % Control CHEAL / pest or weed control at 140 g/ha: 140 g ai/ha
Method: (§1) Seeds or nutlets of the desired test plant species were planted in Sun Gro MetroMix® 306 planting mixture, which typically has a pH of 6.0 to 6.8 and an organic matter content of about 30 percent, in plastic pots with a surface area of 64 square centimeters. When required to ensure good germination and healthy plants, a fungicide treatment and/or other chemical or physical treatment was applied. The plants were grown for 7-21 days in a greenhouse with an approximate 15 hour photoperiod which was maintained at about 23-29° C. during the day and 22-28° C. during the night. Nutrients and water were added on a regular basis and supplemental lighting was provided with overhead metal halide 1000-Watt lamps as necessary. The plants were employed for testing when they reached the first or second true leaf stage. […] The concentrated stock solutions obtained were diluted with 20 mL of an aqueous mixture containing acetone, water, isopropyl alcohol, DMSO, Atplus 411F crop oil concentrate, and Triton® X-155 surfactant in a 48.5:39:10:1.5:1.0:0.02 v/v ratio to obtain spray solutions containing the highest application rates. […] Compound requirements are based upon a 12 mL application volume at a rate of 187 L/ha. Formulated compounds were applied to the plant material with an overhead Mandel track sprayer equipped with a […] nozzles calibrated to deliver 187 L/ha over an application area of 0.503 square meters at a spray height of 18 inches (43 cm) above the average plant canopy height. Control plants were sprayed in the same manner with the solvent blank. The treated plants and control plants were placed in a greenhouse as described above and watered by sub-irrigation to prevent wash-off of the test compounds. […] By applying the well-accepted probit analysis as described by J. Berkson in Journal of the American Statistical […], 48, 565 (1953) and by D.

[2] = tested on: redroot pigweed (Amaranthus retroflexus); experiment: Postemergence herbicidal activity; assay type: in vivo; details: post-emergent, after 14 days; for % Control AMARE / pest or weed control at 140 g/ha: 140 g ai/ha
Method: as §1

[3] = tested on: velvetleaf (Abutilon theophrasti); experiment: Postemergence herbicidal activity; assay type: in vivo; details: post-emergent, after 14 days; for % Control ABUTH / pest or weed control at 140 g/ha: 140 g ai/ha
Method: as §1

[4] = Chenopodium album, post-emergence, 336 h, read-out: % Control CHEAL
[5] = Amaranthus retroflexus, post-emergence, 336 h, read-out: % Control AMARE
[6] = Abutilon theophrasti, post-emergence, 336 h, read-out: % Control ABUTH

Compound | % Control CHEAL [1] [%] | % Control AMARE [2] [%] | % Control ABUTH [3] [%] | pest or weed control at 140 g/ha [1, 4] [%] | pest or weed control at 140 g/ha [2, 5] [%] | pest or weed control at 140 g/ha [3, 6] [%] | further results
4-Amino-3-chloro-(2-chloro-4-difluoromethyl-6-fluoro-3-methoxy-phenyl)pyridine-2-carboxylic acid, methyl ester [Compound 53] | 95 | 80 | 70 | – | – | – | –
COC(=O)c1nc(-c2ccc(C#N)c(OC)c2F)cc(N)c1Cl [Compound 6, 4-Amino-3-chloro-6-(4-cyano-2-fluoro-3-methoxyphenyl)pyridine-2-carboxylic acid methyl ester] | – | – | – | 95 | 100 | 90 | –
COC(=O)c1nc(-c2cc(OC)c(Cl)cc2F)cc(NC(C)=O)c1Cl [Compound 18, 4-acetylamino-3-chloro-6-(4-chloro-2-fluoro-5-methoxy-phenyl)pyridine-2-carboxylic acid methyl ester] | – | – | – | – | – | – | melting point: 180 to 182 °C
COC(=O)c1nc(-c2ccc(Cl)c(C)c2F)cc(NC(C)=O)c1Cl [Compound 19, 4-Acetylamino-3-chloro-6-(4-chloro-2-fluoro-3-methylphenyl)pyridine-2-carboxylic acid methyl ester] | – | – | – | – | – | – | melting point: 151 to 152 °C
COC(=O)c1nc(-c2ccc(Cl)c(C(C)(C)F)c2F)cc(N)c1Cl [Compound 25, 4-Amino-3-chloro-6-[4-chloro-2-fluoro-3-(1-fluoro-1-methylethyl)phenyl]-pyridine-2-carboxlic acid, methyl ester] | 100 | 100 | 100 | – | – | – | –
COC(=O)c1nc(-c2ccc(F)c(OC)c2F)cc(NC(C)=O)c1Cl [Compound 28, 4-Acetylamino-3-chloro-(2,4-difluoro-3-methoxyphenyl)pyridine-2-carboxylic acid, methyl ester] | 95 | 100 | 100 | – | – | – | –
COC(=O)c1nc(-c2ccc(F)c(OC)c2Cl)cc(NC(C)=O)c1Cl [Compound 29, 4-Acetylamino-3-chloro-(2-chloro-4-fluoro-3-methoxyphenyl)pyridine-2-carboxylic acid, methyl ester] | 98 | 40 | 95 | – | – | – | –
CCC(F)c1c(Cl)ccc(-c2cc(NC(C)=O)c(Cl)c(C(=O)OC)n2)c1F (centres unmarked) [Compound 32, 4-Acetylamino-3-chloro-6-[4-chloro-2-fluoro-3-(1-fluoropropyl)-phenyl]pyridine-2-carboxylic acid, methyl ester] | – | – | – | 50 | 80 | 60 | –
COC(=O)c1nc(-c2ccc(Cl)c(N(C)C)c2Cl)cc(N)c1Cl [Compound 37, 4-Amino-3-chloro-6-[2,4-dichloro-3-(dimethylamino)phenyl]pyridine-2-carboxylic acid, methyl ester] | – | – | – | 100 | 100 | 100 | –
COC(=O)c1nc(-c2ccc(Cl)c(C(=O)OC)c2F)cc(N)c1Cl [Compound 39, 4-Amino-3-chloro-6-[4-chloro-2-fluoro-3-(methoxycarbonyl)phenyl]pyridine-2-carboxyic acid, methyl ester] | 95 | 75 | 90 | – | – | – | –
COC(=O)c1nc(-c2ccc(Cl)c(C)c2Cl)cc(N)c1Cl [Compound 48, 4-Amino-3-chloro-6-(2,4-dichloro-3-methylphenyl)pyridine-2-carboxylic acid methyl ester] | – | – | – | – | – | – | pest or weed control at 101 g/ha ([1]; Chenopodium album, post-emergence, 336 h, 101 g ai/ha, read-out: % Control CHEAL): 85%; pest or weed control at 101 g/ha ([2]; Amaranthus retroflexus, post-emergence, 336 h, 101 g ai/ha, read-out: % Control AMARE): 80%; pest or weed control at 101 g/ha ([3]; Abutilon theophrasti, post-emergence, 336 h, 101 g ai/ha, read-out: % Control ABUTH): 98%
COC(=O)c1nc(-c2c(F)cc(Cl)c(C(F)F)c2F)cc(N)c1Cl [Compound 54, 4-Amino-3-chloro-6-(4-chloro-3-difluoromethyl-2,6-difluorophenyl)pyridine-2-carboxylic acid, methyl ester] | – | – | – | 100 | 100 | 100 | –
COC(=O)c1nc(-c2c(F)cc(F)c(OC)c2Cl)cc(N)c1Cl [Compound 55, 4-Amino-3-chloro-(2-chloro-4,6-difluoro-3-methoxyphenyl)pyridine-2-carboxylic acid, methyl ester] | 90 | 100 | 100 | – | – | – | –
COC(=O)c1nc(-c2c(F)cc(Cl)c(OC)c2Cl)cc(N)c1Cl [Compound 57, 4-Amino-3-chloro-6-(2,4-dichloro-6-fluoro-3-methoxyphenyl)pyridine-2-carboxylic acid, methyl ester] | – | – | – | 100 | 100 | 100 | –
CCCCOc1c(Cl)ccc(-c2cc(N)c(Cl)c(C(=O)OC)n2)c1F [Compound 60, 4-Amino-3-chloro-6-(4-chloro-3-butoxy-2-fluorophenyl)pyridine-2-carboxylic acid, methyl ester] | – | – | – | 90 | 90 | 55 | –
CCC(F)c1c(Cl)ccc(-c2cc(N)c(Cl)c(C(=O)OC)n2)c1F (centres unmarked) [Compound 66, 4-Amino-3-chloro-6-[4-chloro-2-fluoro-3-(1-fluoropropyl)phenyl]pyridine-2-carboxylic acid, methyl ester] | 95 | 100 | 90 | – | – | – | –
COC(=O)c1nc(-c2ccc(CF)c(OC)c2F)cc(N)c1Cl [Compound 72, 4-Amino-3-chloro-6-(2-fluoro-4-fluoromethyl-3-methoxyphenyl)pyridine-2-carboxylic acid, methyl ester] | – | – | – | 80 | 20 | 100 | –
COC(=O)c1nc(-c2c(F)cc(Cl)c(C)c2F)cc(N)c1Cl [Compound 75, 4-Amino-3-chloro-6-(4-chloro-2,6-difluoro-3-methylphenyl)pyridine-2-carboxylic acid, methyl ester] | – | – | – | 95 | 95 | 100 | –
COC(=O)c1nc(-c2ccc(Cl)c(OC)c2Br)cc(N)c1Cl [Compound 76, 4-Amino-6-(2-bromo-4-chloro-3-methoxyphenyl)-3-chloropyridine-2-carboxylic acid, methyl ester] | – | – | – | 100 | 100 | 100 | –
COC(=O)c1nc(-c2c(F)cc(F)c(C(F)F)c2F)cc(N)c1Cl [Compound 78, 4-Amino-3-chloro-6-(3-difluoromethyl-2,4,6-trifluorophenyl)pyridine-2-carboxylic acid, methyl ester] | – | – | – | 100 | 100 | 90 | –
COC(=O)c1nc(-c2ccc(Cl)c([S+](C)[O-])c2F)cc(N)c1Cl (centres unmarked) [Compound 83, 4-amino-3-chloro-6-(4-chloro-2-fluoro-3-methanesulfinyl-phenyl)pyridine-2-carboxylic acid methyl ester] | – | – | – | 85 | 85 | 90 | –
COC(=O)c1nc(-c2ccc(Cl)c(S(C)(=O)=O)c2F)cc(N)c1Cl [Compound 84, 4-amino-3-chloro-6-(4-chloro-2-fluoro-3-methanesulfonylphenyl)pyridine-2-carboxylic acid methyl ester] | – | – | – | 70 | 75 | 80 | –
Cc1c(F)ccc(-c2cc(N)c(Cl)c(C(=O)O)n2)c1F [Compound 97, 4-Amino-3-chloro-(2,4-difluoro-3-methylphenyl)pyridine-2-carboxylic acid] | 80 | 85 | 65 | – | – | – | –
Nc1cc(-c2ccc(Cl)c(CF)c2F)nc(C(=O)O)c1Cl [Compound 114, 4-Amino-3-chloro-6-(4-chloro-2-fluoro-3-fluoromethylphenyl)pyridine-2-carboxylic acid] | – | – | – | 95 | 85 | 95 | –
CC(C)(F)c1c(Cl)ccc(-c2cc(N)c(Cl)c(C(=O)O)n2)c1Cl [Compound 127] | 100 | 100 | 90 | – | – | – | –

— US20070179060A1, “6-(Poly-substituted aryl)-4-aminopicolinates and their use as herbicides” (priority 2006, published 2007)
